Laboratory results published in patent publication US11065202B2, “Multi-component nanochains” (CASE WESTERN RESERVE UNIVERSITY, priority 2011, dated 2021).

Tests used:
[1] = test system: 13762 MAT B III tumor model; assay: Tumor growth and survival study; type: in vivo, rats; conditions: single treatment 0.5 mg/kg DOX, without RF
Description: The rat tumor model was established by a subcutaneous injection of 1×10^6 13762 MAT B III cells into the right flank of female Fisher rats. Mouse tumors were generated orthotopically in female BALB/c mice by injection of 0.5×10^6 4 T1 cells into the inguinalmammary fat pad. Once the appropriate tumor size was established (diameter ˜0.5 cm), the animals were used in the in vivo studies. Each cell line required different lag times to produce a tumor lesion of about 0.5 cm in size (5 and 8 days for the MAT B III and 4T1 model, respectively). Based on our prior experience, we chose this tumor size as the starting point of the animal studies, since the primary tumor mass is sufficiently large to present angiogenic, necrotic and invasive areas, and therefore may be more informative and relevant to human disease.
Once the appropriate tumor sizes were established (diameter ˜0.5 cm), the rat tumor model was IV injected with DOX-NC at a dose of 0.5 mg/kg DOX. After 24 hours from injection, animals were exposed to the RF field operated as described previously. Following the same dose and schedule, control groups included animals treated with DOX-NC (but no RF), only RF, liposomal DOX, liposomal DOX with RF, free DOX, and saline. […] The tumor growth was monitored every day using caliper measurements. […] Time of death was determined to be the following day.

MAT B III tumors = assay: Histological evaluation of apoptosis (TUNEL), rat model; type: in vivo, rats; conditions: 5 mg/kg, IV
Method: The rat MAT B III and the mouse 4T1 models were used in the histological studies. Animals treated with DOX-NC were exposed to the RF field 24 hours post-injection. After 24 hours from the application of the RF field, the animals were anesthetized with an IP injection of ketamine/xylazine and transcardially perfused with heparinized PBS followed by 4% paraformaldehyde in PBS. Controls included animals treated with DOX-NC (no RF), 35-nm liposomal DOX (with RF), 100-nm liposomal DOX (with RF), free DOX, RF alone and saline. The tumors were explanted and post-fixed overnight in 4% paraformaldehyde in PBS. The fixed tumors were soaked in 30% sucrose (w/v) in PBS at 4° C. for cryosectioning. Serial sections of 12 μm thickness were collected using a cryostat (Leica CM 300).
To visualize the tumor microvasculature, the tissue slices were immunohistochemically stained for the specific endothelial antigen CD31 (BD Biosciences, Pharmingen). The tissues were also stained with the nuclear stain DAPI. […] Direct fluorescence (red) imaging of tumor sections were performed for imaging DOX. Apoptosis was detected using a TUNEL assay (Promega). […] The total number of cells was counted based on the nuclear stain (DAPI) in multiple histological sections per tumor (minimum 20), whereas apoptotic cells were quantified based on TUNEL-stained nuclei.

With COc1cccc2c1C(=O)c1c(O)c3c(c(O)c1C2=O)C[C@@](O)(C(=O)CO)C[C@@H]3O[C@H]1C[C@H](N)[C@H](O)[C@H](C)O1 [free DOX, doxorubicin] the tumor growth [1] was “failed to produce any therapeutic benefits” and the “apoptotic cells in tumor (visual inspection)” value (MAT B III tumors) was “substantial number of apoptotic cells”.
